Experimental data from PubChem BioAssay (NCI).
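Five compound concentrations were applied to cells in 96-well plates for 48 hours; endpoints were derived by simple linear interpolation of the resulting dose-response curve. The concentration for full growth arrest is given as TGI.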 Where a SMILES comes first, the peptide text is derived from it. [ ]: non-standard residue; d: D form. Ac5c = NC1(C(=O)O)CCCC1

How the values were obtained:
Assay in all cases: NCI anticancer screen, dose series, 48 h
786-0 renal = system: 786-0 renal
A549 NSCLC = system: A549 NSCLC
ACHN renal = system: ACHN renal
CAKI-1 renal = system: CAKI-1 renal
CCRF-CEM leukemia = system: CCRF-CEM leukemia
COLO 205 colon = system: COLO 205 colon
DU-145 prostate = system: DU-145 prostate
EKVX NSCLC = system: EKVX NSCLC
HCC-2998 colon = system: HCC-2998 colon
HCT-116 colon = system: HCT-116 colon
HCT-15 colon = system: HCT-15 colon
HL-60(TB) leukemia = system: HL-60(TB) leukemia
HOP-62 NSCLC = system: HOP-62 NSCLC
HOP-92 NSCLC = system: HOP-92 NSCLC
HS 578T breast = system: HS 578T breast
HT29 colon = system: HT29 colon
IGROV1 ovarian = system: IGROV1 ovarian
K-562 leukemia = system: K-562 leukemia
KM12 colon = system: KM12 colon
LOX IMVI melanoma = system: LOX IMVI melanoma
M14 melanoma = system: M14 melanoma
MALME-3M melanoma = system: MALME-3M melanoma
MCF7 breast = system: MCF7 breast
MDA-MB-435 = system: MDA-MB-435
MDA-N = system: MDA-N
MOLT-4 leukemia = system: MOLT-4 leukemia
NCI-H23 lung = system: NCI-H23 lung
NCI-H460 lung = system: NCI-H460 lung
NCI-H522 lung = system: NCI-H522 lung
NCI/ADR-RES ovarian = system: NCI/ADR-RES ovarian
OVCAR-3 ovarian = system: OVCAR-3 ovarian
OVCAR-4 ovarian = system: OVCAR-4 ovarian
OVCAR-5 ovarian = system: OVCAR-5 ovarian
OVCAR-8 ovarian = system: OVCAR-8 ovarian
PC-3 prostate = system: PC-3 prostate
RPMI-8226 leukemia = system: RPMI-8226 leukemia
SF-268 CNS = system: SF-268 CNS
SF-295 CNS = system: SF-295 CNS
SK-MEL-2 melanoma = system: SK-MEL-2 melanoma
SK-MEL-28 melanoma = system: SK-MEL-28 melanoma
SK-MEL-5 melanoma = system: SK-MEL-5 melanoma
SK-OV-3 ovarian = system: SK-OV-3 ovarian
SN12C renal = system: SN12C renal
SNB-19 CNS = system: SNB-19 CNS
SNB-75 CNS = system: SNB-75 CNS
SR leukemia = system: SR leukemia
SW-620 colon = system: SW-620 colon
T-47D breast = system: T-47D breast
TK-10 renal = system: TK-10 renal
U251 CNS = system: U251 CNS
UACC-257 melanoma = system: UACC-257 melanoma
UACC-62 melanoma = system: UACC-62 melanoma
UO-31 renal = system: UO-31 renal
MDA-MB-231 breast = system: MDA-MB-231 breast
SF-539 CNS = system: SF-539 CNS
A498 renal = system: A498 renal
BT-549 breast = system: BT-549 breast
NCI-H226 lung = system: NCI-H226 lung
RXF 393 renal = system: RXF 393 renal

Measured: TGI

CC(=O)c1c2c(cc3c1CC1(C3)Cc3cc4c(c(C(=O)O)c3C1)CCCC4)CCCC2 (stereo unspecified) (tested in a mixture with another compound)
59.7 µM: KM12 colon
63.7 µM: SK-MEL-5 melanoma
89.3 µM: RPMI-8226 leukemia
40.6 µM: UO-31 renal
68.4 µM: COLO 205 colon
53.6 µM: NCI-H460 lung
93.6 µM: HCC-2998 colon
72.4 µM: HCT-116 colon
54.9 µM: HL-60(TB) leukemia
43.9 µM: MOLT-4 leukemia
44.6 µM: HOP-62 NSCLC
94.6 µM: CCRF-CEM leukemia
39.7 µM: HOP-92 NSCLC
53.8 µM: SR leukemia
72.6 µM: U251 CNS
60.5 µM: SK-MEL-2 melanoma
48.7 µM: OVCAR-3 ovarian
96.2 µM: M14 melanoma
74.3 µM: UACC-257 melanoma
not listed: MDA-MB-231 breast | SF-539 CNS | A498 renal | BT-549 breast | NCI-H226 lung | RXF 393 renal
> 100 µM: all other assays above

COC(=O)C1(NC(=O)C(C)NC(=O)C(CCCCN)NC(=O)C(CC(C)C)NC(C)=O)CCCC1 (stereo unspecified) (Ac-LKA[Ac5c]-OMe; configuration not given here)
not listed: CAKI-1 renal | DU-145 prostate | HOP-92 NSCLC | LOX IMVI melanoma | MALME-3M melanoma | NCI-H23 lung | NCI/ADR-RES ovarian | OVCAR-3 ovarian | OVCAR-4 ovarian | OVCAR-5 ovarian | SK-MEL-2 melanoma | U251 CNS | UACC-62 melanoma | A498 renal | BT-549 breast | NCI-H226 lung | RXF 393 renal
> 100 µM: all other assays above

CCOC(=O)/C(C#N)=C/c1ccc(SCc2ccco2)c([N+](=O)[O-])c1
not listed: HCT-15 colon | T-47D breast | TK-10 renal
> 100 µM: all other assays above

C/C(=N\NC(=O)c1ccncc1)c1cccc(F)c1
not listed: DU-145 prostate | EKVX NSCLC | HS 578T breast | HT29 colon | MDA-MB-435 | NCI-H522 lung | OVCAR-4 ovarian | UACC-257 melanoma | UACC-62 melanoma | MDA-MB-231 breast | BT-549 breast
> 10 µM: all other assays above

N#Cc1nc(C(O)c2ccccc2)oc1N (stereo unspecified)
not listed: HCC-2998 colon | HCT-15 colon | MDA-MB-435 | NCI-H460 lung | OVCAR-4 ovarian | SR leukemia | BT-549 breast
> 100 µM: all other assays above
